Consider 12 molecules from patent publication US12187759B2, “TLR7 agonists” (Primmune Therapeutics, Inc., priority 2019, dated 2025).

Molecules are shown by their SMILES. Like-named read-outs stand apart in the source and are kept apart here.

One assay has as its target T1, human TLR7 (Homo sapiens, UniProt Q9NYK1).
T1 construct: host or cells: HEK293
T1 sequence (Q9NYK1 27-1049): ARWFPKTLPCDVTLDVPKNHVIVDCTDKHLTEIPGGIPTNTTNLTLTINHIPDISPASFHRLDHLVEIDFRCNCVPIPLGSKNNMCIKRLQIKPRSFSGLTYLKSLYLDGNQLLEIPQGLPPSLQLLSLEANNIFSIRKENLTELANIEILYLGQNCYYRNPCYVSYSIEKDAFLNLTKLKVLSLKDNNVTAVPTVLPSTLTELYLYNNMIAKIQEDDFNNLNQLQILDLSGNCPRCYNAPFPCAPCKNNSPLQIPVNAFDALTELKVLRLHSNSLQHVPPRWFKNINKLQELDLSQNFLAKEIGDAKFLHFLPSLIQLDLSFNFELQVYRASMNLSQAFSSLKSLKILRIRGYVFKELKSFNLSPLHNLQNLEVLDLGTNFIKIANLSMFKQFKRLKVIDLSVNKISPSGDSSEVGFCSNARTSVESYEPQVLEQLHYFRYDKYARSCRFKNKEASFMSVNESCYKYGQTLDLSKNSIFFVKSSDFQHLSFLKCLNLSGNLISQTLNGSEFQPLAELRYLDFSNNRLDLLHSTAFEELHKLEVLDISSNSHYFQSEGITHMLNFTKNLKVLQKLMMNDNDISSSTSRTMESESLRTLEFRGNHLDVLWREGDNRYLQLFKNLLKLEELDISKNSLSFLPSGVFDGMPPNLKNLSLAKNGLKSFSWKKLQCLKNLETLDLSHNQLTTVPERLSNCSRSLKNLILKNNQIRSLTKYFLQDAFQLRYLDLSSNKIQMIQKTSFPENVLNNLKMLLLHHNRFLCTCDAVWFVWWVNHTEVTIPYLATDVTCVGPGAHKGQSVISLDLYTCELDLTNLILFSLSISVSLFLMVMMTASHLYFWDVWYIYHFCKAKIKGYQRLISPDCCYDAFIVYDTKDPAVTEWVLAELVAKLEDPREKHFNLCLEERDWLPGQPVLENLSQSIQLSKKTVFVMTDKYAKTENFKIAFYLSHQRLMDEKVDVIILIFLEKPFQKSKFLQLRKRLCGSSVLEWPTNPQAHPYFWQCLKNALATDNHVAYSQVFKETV
The experiment in a line: TLR7 reporter cell assay (HEK293 cells stably expressing human TLR7 with NF-κB-driven SEAP reporter). It counts as cell-based. To be noted: for EC50: fit of SEAP dose response, ymax from 28.5 μM resiquimod. The text has this: The engagement of TLRs by cognate ligands triggers downstream signaling cascades, leading to the activation of NF-κB and other transcription factors which initiate various immunomodulatory effects. The human embryonic kidney cell line, HEK293, is essentially non-responsive to TLR agonists, but ectopic expression of TLRs in these cells allows cognate agonists to activate endogenous NF-κB. Accordingly, the HEK293-TLR-NF-κB inducible reporter system is used to assay TLR agonists.
HEK293 cell lines stably expressing human TLR7 or TLR8 together with an NF-κB-driven-secreted alkaline phosphatase (SEAP) reporter were invented at InvivoGen (San Diego, California, USA) and used to assess compounds of the present invention for TLR7 and TLR8 agonist activities. Cells were seeded at 2-5×10^4 cells/well in 96 well plates (200 μl/well) and treated with various concentrations of compound (10 μl) for 15-24 hours. SEAP activity was determined by measuring OD at 650 nm; the media used to culture the cell lines contains the reagents required for SEAP detection. The EC50 values in Table 1 are calculated from fitting the dose response of measured SEAP activity for each compound to the following equation: Y=ymax*c^nh/(EC50^nh+c^nh)+blank where Y is the experimentally measured OD650 at concentration c of test article, blank is the observed OD650 in the absence of TLR7 agonist, ymax is the difference between the measured OD650 in the presence of 28.5 μM resiquimod and the blank and values of EC50 and nh are determined by nonlinear least squares analysis. Resiquimod is a known TLR7 and TLR8 agonist.
Compound A is 5-amino-3-((2R,3R,5S)-3-hydroxy-5-((S)-1-hydroxypropyl)tetrahydrofuran-2-yl)thiazolo[4,5-d]pyrimidine-2,7(3H,6H)-dione)

Assay [1] has as its system hPBMCs (Human Peripheral Blood Mononuclear Cells). The experiment in a line: Induction of interferon-α in hPBMCs in vitro. It counts as cell-based. The note with it: for Emax / minimal effective concentration: Homo sapiens, PBMC; for Emax: 24 h, peak IFNα2a as percentage of peak response of standard 2-Amino-7-(cyclopropylmethyl)-9-B-D-xylofuranosyl-7,9-dihydro-1H-purine-6,8-dione, averaged across donors, read-out: IFNrmax, Relative Maximal IFNα2a Production (%); for minimal effective concentration: minimal effective concentration for interferon-α production (generally at least 80 pg/ml above baseline), geometric mean across at least three donors, 24 hours, read-out: Weighted MEC. The method, then:
Treatment of hPBMCs with a TLR7 agonist typically induces some production of interferon-α as well as lesser amounts of a variety of other cytokines and chemokines. A typical experiment uses hPBMCs isolated from a healthy donor and placed in replicate cell culture wells; typically 1.0-7.5×10^6 cells are placed in each well. A test compound is added and the cells are cultured for 24 hours at 37° C. in a humidified atmosphere containing 5% CO2 post-addition; untreated controls are included. Secreted interferon-α production is measured using an a multisubtype interferon-α ELISA kit like those from PBL Assay Sciences or specifically as IFNα2a as part of a panel of cytokines and chemokines using luminex methodologies.
The minimal effective concentration (MEC) is the minimum concentration in a dose response curve where a significant increase in interferon-α production (generally at least 80 pg/ml) is observed above baseline. MEC values for each compound are determined for at least three donors. The weighted MEC for each compound is the geometric mean of all individual MECs across all donors. Concentrations tested typically consist of a two-fold dilution series starting at 100 μM. In the calculation of weighted MEC, any individual MEC value greater the highest concentration tested is arbitrarily set to two times the highest concentration tested unless all MECs for a compound exceed this value. The maximal amount of IFNα2a for each donor is determined from dose dependence for each compound.
In order to normalize for variation in each hPBMC preparation, these values are first transformed by expressing as a percentage of peak response measured with a standard (2-Amino-7-(cyclopropylmethyl)-9-B-D-xylofuranosyl-7,9-dihydro-1H-purine-6,8-dione) and then averaging the results across all donors, this average referred to as IFNrmax.
IFNmax is the maximum amount of IFN observed at any concentration across the evaluated concentration range. MEC and IFNmax values for three select compound are shown for three donors (Table 3). The range of tested concentrations were 0.625-5 μM for Imiquimod, 3.125-100 μM for both Compound A and Compound 1, 12.5-100 μM for Compound 2.

The mark [2] stands for this setting: HEK293, read-out: Response at 500 μM Compound as a Percent of Resiquimod Response.
Setting [3] is: HEK293, 500 μM compound, SEAP activity (OD 650 nm) relative to 28.5 μM resiquimod, 15-24 hours, read-out: Response at 500 μM Compound as a Percent of Resiquimod Response.

As usually defined, the EC50 is the concentration at which the effect is half-maximal. A low value points to greater potency. For `C#CCn1c(=O)n([C@@H]2O[C@H]([C@H](O)CC)[C@H](F)[C@H]2O)c2nc(N)[nH]c(=O)c21` [Compound 12, 2-Amino-9-((2R,3S,4R,5R)-4-fluoro-3-hydroxy-5-((R)-1-hydroxypropyl)tetrahydrofuran-2-yl)-7-(prop-2-yn-1-yl)-7,9-dihydro-1H-purine-6,8-dione], the Emax at 500 µM on human TLR7 (setting [2]) was found to be 6%. At human TLR7 (15-24 hours), this molecule came in with an EC50 above 500 µM.
As to `CCCn1c(=O)n([C@@H]2O[C@H]([C@@H](O)C(F)(F)F)C[C@H]2O)c2nc(N)[nH]c(=O)c21` [Compound 25, 2-Amino-9-((2R,3R,5S)-3-hydroxy-5-((R)-2,2,2-trifluoro-1-hydroxyethyl)tetrahydrofuran-2-yl)-7-propyl-7,9-dihydro-1H-purine-6,8-dione], the Emax at 500 µM on human TLR7 (setting [3]) is 74%. This molecule came in with an EC50 at human TLR7 (15-24 hours) of 324 µM. Besides, in assay [1], the Emax stood at 80% and the minimal effective concentration worked out at 19.8 µM.
For `C=C=Cn1c(=O)n([C@@H]2O[C@H]([C@H](O)CC)C[C@H]2O)c2nc(N)[nH]c(=O)c21` [Compound 3, 2-amino-9-((2R,3R,5S)-3-hydroxy-5-((R)-1-hydroxypropyl)tetrahydrofuran-2-yl)-7-(propa-1,2-dien-1-yl)-7,9-dihydro-1H-purine-6,8-dione], the Emax at 500 µM at human TLR7 (setting [2]) was below 5%.
`CC[C@H](O)[C@@H]1C[C@@H](O)[C@H](n2c(=O)n(CCO)c3c(=O)[nH]c(N)nc32)O1` [Compound 32, 2-Amino-9-((2R,3R,5S)-3-hydroxy-5-((S)-1-hydroxypropyl)tetrahydrofuran-2-yl)-7-(2-hydroxyethyl)-7,9-dihydro-1H-purine-6,8-dione]: the Emax at 500 µM on human TLR7 (setting [3]) worked out at 68%. On human TLR7 (15-24 hours), this molecule showed an EC50 of 339 µM. Also, in assay [1], the Emax was found to be 223% and the minimal effective concentration came out at 7.9 µM.
As for `C#CCn1c(=O)n([C@@H]2O[C@H]([C@H](O)C(F)(F)F)C[C@H]2O)c2nc(N)[nH]c(=O)c21` [Compound 11, 2-Amino-9-((2R,3R,5S)-3-hydroxy-5-((S)-2,2,2-trifluoro-1-hydroxyethyl)tetrahydrofuran-2-yl)-7-(prop-2-yn-1-yl)-7,9-dihydro-1H-purine-6,8-dione], the Emax at 500 µM on human TLR7 (setting [2]) was below 5%.
For `C#CC[C@H](O)[C@@H]1C[C@@H](O)[C@H](n2c(=O)n(CC#C)c3c(=O)[nH]c(N)nc32)O1` [Compound 35, 2-Amino-9-((2R,3R,5S)-3-hydroxy-5-((S)-1-hydroxybut-3-yn-1-yl)tetrahydrofuran-2-yl)-7-(prop-2-yn-1-yl)-7,9-dihydro-1H-purine-6,8-dione], the Emax at 500 µM on human TLR7 (setting [3]) was determined as 91%. On human TLR7 (15-24 hours), this molecule gave an EC50 of 114 µM. Further, in assay [1], the Emax is 207% and the minimal effective concentration was 3.1 µM.
In the case of `CC[C@H](O)[C@@H]1C[C@@H](O)[C@H](n2c(=O)n(CCSC)c3c(=O)[nH]c(N)nc32)O1` [Compound 22, 2-Amino-9-((2R,3R,5S)-3-hydroxy-5-((S)-1-hydroxypropyl)tetrahydrofuran-2-yl)-7-(2-(methylthio)ethyl)-7,9-dihydro-1H-purine-6,8-dione], the Emax at 500 µM at human TLR7 (setting [3]) came to 69%. On human TLR7 (15-24 hours), this molecule had an EC50 of 224 µM. In assay [1], the Emax came out at 307% and the minimal effective concentration came out at 6.3 µM.
Take `C#CCn1c(=O)n([C@@H]2O[C@H](CO)[C@@H](F)[C@H]2O)c2nc(N)[nH]c(=O)c21` [Compound B, 2-Amino-9-((2R,3S,4S,5R)-4-fluoro-3-hydroxy-5-(hydroxymethyl)tetrahydrofuran-2-yl)-7-(prop-2-yn-1-yl)-7,9-dihydro-1H-purine-6,8-dione, reference compound]: in assay [1], the Emax turned out to be 260% and the minimal effective concentration turned out to be 17.9 µM.
Consider `CC(C)Cn1cnc2c(N)nc3ccccc3c21` [Imiquimod, reference compound], for which the “Donor 1 MEC” value in assay [1] (Donor 1, interferon-α production) came to 5 µM. Besides, the “Donor 1 IFNmax” value in assay [1] (Donor 1, maximum IFN at any concentration of the evaluated range) is 793 pg/mL. Besides, the “Donor 2 MEC” value in assay [1] (Donor 2, interferon-α production) turned out to be 5 µM. Moreover, in assay [1] (Donor 2, maximum IFN at any concentration of the evaluated range), the “Donor 2 IFNmax” value is 193 pg/mL. The “Donor 3 MEC” value in assay [1] (Donor 3, interferon-α production) stood at 1.25 µM. Further, in assay [1] (Donor 3, maximum IFN at any concentration of the evaluated range), the “Donor 3 IFNmax” value was 1350 pg/mL.
For the molecule `C#CCn1c(=O)n([C@@H]2O[C@@H](C(=O)CC)C[C@H]2O)c2nc(N)[nH]c(=O)c21` [Compound 38, 2-Amino-9-((2R,3R,5R)-3-hydroxy-5-propionyltetrahydrofuran-2-yl)-7-(prop-2-yn-1-yl)-7,9-dihydro-1H-purine-6,8-dione], the Emax at 500 µM on human TLR7 (setting [2]) is below 5%.
For `C#CCn1c(=O)n([C@@H]2O[C@H](C(=O)CC)C[C@H]2O)c2nc(N)[nH]c(=O)c21` [Compound 37, 2-Amino-9-((2R,3R,5S)-3-hydroxy-5-propionyltetrahydrofuran-2-yl)-7-(prop-2-yn-1-yl)-7,9-dihydro-1H-purine-6,8-dione], on human TLR7 (setting [2]), the Emax at 500 µM is 40%. At human TLR7 (15-24 hours), this molecule yielded an EC50 of 462 µM.
`C#CCn1c(=O)n([C@@H]2O[C@H]([C@@H](O)C(F)(F)F)C[C@H]2O)c2nc(N)[nH]c(=O)c21` [Compound 10, 2-Amino-9-((2R,3R,5S)-3-hydroxy-5-((R)-2,2,2-trifluoro-1-hydroxyethyl)tetrahydrofuran-2-yl)-7-(prop-2-yn-1-yl)-7,9-dihydro-1H-purine-6,8-dione]: on human TLR7 (setting [2]), the Emax at 500 µM is 72%. Moreover, the EC50 on human TLR7 (15-24 hours) amounted to 311 µM.
